Earlier results on 2 compounds are cited in patent publication US8673356B2, “Stable fixed dose topical formulation” (Glenmark Pharmaceuticals Limited, priority 2008, dated 2014).

For data set [1] the following is noted: converted in vivo by hydrolysis to active clindamycin.

As for `COc1ccc(-c2ccc3cc(C(=O)O)ccc3c2)cc1C12CC3CC(CC(C3)C1)C2` [Adapalene, 6-[3-(1-adamantyl)-4-methoxyphenyl]-2-naphthoic acid], the Solubility in water result is recorded as “practically insoluble”. Moreover, where the note is “ethanol”, the Solubility in ethanol entry is “very slightly soluble”. For the same compound, for the setting “tetrahydrofuran”, the Solubility in tetrahydrofuran result is “soluble”.

For the compound `CCC[C@@H]1C[C@@H](C(=O)NC(C2O[C@H](SC)[C@H](OP(=O)(O)O)[C@@H](O)[C@H]2O)[C@H](C)Cl)N(C)C1` (stereo partly drawn) [Clindamycin phosphate, methyl 7-chloro-6,7,8-trideoxy-6-(1-methyl-trans-4-propyl-L-2-pyrrolidinecarboxamido)-1-thio-L-threo-D-galactooctopyranoside 2-(dihydrogen phosphate)], the Solubility in water entry is “water soluble”. The Activity in vitro result in data set [1] is “inactive”.
